Laboratory results published in patent US8227625B2, “4,5,6,7-tetrahydrobenzo[b]thiophene derivatives and their use as sigma receptor ligands” (Laboratorios del Dr. Esteve, S.A., priority 2006, dated 2012).

How the values were obtained:
Sigma-1 receptor = molecular target: T1, Sigma-1 receptor (Cavia porcellus, UniProt Q60492); test: Sigma-1 receptor radioligand binding assay, [3H](+)-pentazocine, guinea pig brain membranes; conditions: [3H](+)-pentazocine 0.5 nM; for % Binding σ1 10^−7M: compound at 10^−7M; for % Binding σ1 10^−8M: compound at 10^−8M
T1 construct: from tissue; host or cells: guinea pig brain membranes
Method: Brain membrane preparation and binding assays for the al-receptor were performed as described (DeHaven-Hudkins et al., 1992) with some modifications. In brief, guinea pig brains were homogenized in 10 vols. (w/v) of Tris-HCl 50 mM 0.32 M sucrose, pH 7.4, with a Kinematica Polytron PT 3000 at 15000 r.p.m. for 30 s. The homogenate was centrifuged at 1000 g for 10 min at 4° C. and the supernatants collected and centrifuged again at 48000 g for 15 min at 4° C. The pellet was resuspended in 10 volumes of Tris-HCl buffer (50 mM, pH 7.4), incubated at 37° C. for 30 min, and centrifuged at 48000 g for 20 min at 4° C. Following this, the pellet was resuspended in fresh Tris-HCl buffer (50 mM, pH 7.4) and stored on ice until use.
Each assay tube contained 10 μL of [^3H](+)-pentazocine (final concentration of 0.5 nM), 900 μL of the tissue suspension to a final assay volume of 1 mL and a final tissue concentration of approximately 30 mg tissue net weight/mL. Non-specific binding was defined by addition of a final concentration of 1 μM haloperidol. All tubes were incubated at 37° C. for 150 min before termination of the reaction by rapid filtration over Schleicher & Schuell GF 3362 glass fibre filters [previously soaked in a solution of 0.5% polyethylenimine for at least 1 h]. Filters were then washed with four times with 4 mL of cold Tris-HCl buffer (50 mM, pH 7.4). Following addition of scintillation cocktail, the samples were allowed to equilibrate overnight. The amount of bound radioactivity was determined by liquid scintillation spectrometry using a Wallac Winspectral 1414 liquid scintillation counter. Protein concentrations were determined by the method of Lowry et al. (1951).

T1 sequence (Q60492 whole entry): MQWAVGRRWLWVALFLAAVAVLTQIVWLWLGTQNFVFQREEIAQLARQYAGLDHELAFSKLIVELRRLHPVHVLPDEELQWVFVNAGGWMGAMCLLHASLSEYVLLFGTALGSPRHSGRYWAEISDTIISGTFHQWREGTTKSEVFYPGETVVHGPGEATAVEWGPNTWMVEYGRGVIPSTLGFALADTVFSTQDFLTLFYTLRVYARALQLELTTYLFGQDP

% Binding σ1 10^−7M (Sigma-1 receptor) [%] | % Binding σ1 10^−8M (Sigma-1 receptor) [%] | melting point [°C] | Compound
– | – | 167 to 168 | Brc1cccc2c1CCN(CCC1CCCc3sccc31)C2.O=C(O)C(=O)O (centres unmarked) [Example 91, 5-bromo-2-(2-(4,5,6,7-tetrahydrobenzo[b]thiophen-4-yl)ethyl)-1,2,3,4-tetrahydroisoquinoline oxalate]
– | – | 180 to 181 | N#Cc1ccc2c(c1)CN(CCC1CCCc3sccc31)CC2.O=C(O)C(=O)O (centres unmarked) [Example 93, 2-(2-(4,5,6,7-tetrahydrobenzo[b]thiophen-4-yl)ethyl)-1,2,3,4-tetrahydroisoquinoline-7-carbonitrile oxalate]
– | – | 195 to 199 | O=C(O)C(=O)O.O=C1N(c2ccc(F)cc2)CCC12CCN(CCC1CCCc3sccc31)CC2 (centres unmarked) [Example 95, 2-(4-Fluorophenyl)-8-[2-(4,5,6,7-tetrahydrobenzo[b]thiophen-4-yl)-ethyl]-2,8-diazaspiro[4.5]decan-1-one oxalate]

The next lines start with the compound.

Compound | % Binding σ1 10^−7M (Sigma-1 receptor) [%] | % Binding σ1 10^−8M (Sigma-1 receptor) [%] | melting point [°C]
CN(C/C=C1\CCCc2sccc21)Cc1ccccc1 [Example 3, (E)-N-benzyl-2-(6,7-dihydrobenzo[b]thien-4(5H)-ylidene)-N-methylethanamine] | 70.6 | 27.3 | –
C(/CN1CCC(c2ccccc2)CC1)=C1/CCCc2sccc21 [Example 5, (E)-1-(2-(6,7-dihydrobenzo[b]thien-4(5H)-ylidene)ethyl)-4-phenylpiperidine] | 84.5 | 32.8 | –
CN(C/C=C1\CCCc2sccc21)CCc1ccccc1 [Example 7, (E)-N-(2-(6,7-dihydrobenzo[b]thien-4(5H)-ylidene)ethyl)-N-methyl-2-phenylethanamine] | 89.3 | 48.6 | –
C(/CN1CCCCC1)=C1/CCCc2sccc21 [Example 9, (E)-1-(2-(6,7-dihydrobenzo[b]thien-4(5H)-ylidene)ethyl)piperidine] | 23 | 5 | –
CC1CCN(C/C=C2\CCCc3sccc32)CC1 [Example 11, (E)-1-(2-(6,7-dihydrobenzo[b]thien-4(5H)-ylidene)ethyl)-4-methylpiperidine] | 70.9 | 18.2 | –
O=C(O)C(=O)O.O=C1N(c2ccc(C(F)(F)F)cc2)CCC12CCN(CCC1CCCc3sccc31)CC2 (centres unmarked) [Example 89, 2-(4-trifluoromethylphenyl)-8-[2-(4,5,6,7-tetrahydrobenzo[b]thiophen-4-yl)-ethyl]-2,8-diazaspiro[4.5]decan-1-one oxalate] | – | – | 166 to 168
